Test results published in US7847152B2, “Use of tryptophan indole and anthranilate analogs as plant transformation selection agents” (The Board of Trustees of the University of Illinois, priority 2006, dated 2010).
“Also recorded” adds a separate entry of the source.

How the values were obtained:
[1] = system: ASA2 expressing transgenic tobacco seedlings; assay: Seedling growth inhibition test, ASA2 expressing transgenic tobacco; format: in vivo, Nicotiana tabacum; details: 75 μm analog; for germination and growth of T2 seed of homozygous ASA2 lines: four lines, pC2ASA2 transformants; for transgenic seedling growth: line ASTIV
Excerpt: The concentrations listed in Table 1 are for illustrative purposes and should not be construed as a limited range. Seedling growth inhibition was studied by placing a total of 45 surface-sterilized seeds of either the wild-type (WT) tobacco (Nicotiana tabacum cv. Petit Havana SR1) or the ASA2 expressing transgenic plants previously obtained (Zhang et al., 2001), on Murashige-Skoog medium supplemented with 3% sucrose, vitamins, 0.8% agar and various concentrations of the different analogs (see Table 1). […] The analogs listed in Table 1 were obtained from Sigma-Aldrich (St. Louis, Mo.) or Acros Organics (Morris Plains, N.J.).
(§1) A vector pC2ASA2 was used, which contains a full length 2,144-bp AS feedback-insensitive α-subunit (ASA2) cDNA, encoding 616 amino acids including a putative transit peptide and 204 bp of 3′non-coding region driven by the CaMV35S promoter. pC2ASA2 was electroporated into Agrobacterium tumefaciens strain EHA105 and then used for the leaf disc transformation. Shoots of tobacco (Nicotiana tabacum L. cv. Xanthi) plants were maintained as in vitro stock cultures in Magenta boxes containing MS basal medium (Murashige and Skoog 1962) with 2 g 1-1 Gelrite® and leaves from these shoots were sources of explants for transformation. The growth conditions were 16-h photoperiod with a temperature of 28° C., florescent lamps providing a photosynthetic photon flux density of 150 μmol m-2 s-1 at the shelf surface. For segregation tests or for seedling growth inhibition tests on different analogs, 50 seeds/plate were surface sterilized with a solution of distilled water-Clorox (80:20; 1.25% Na hypochlorite) for 20 min containing a few drops of Tween 20™ and then rinsed with sterile water before spreading them on MS basal medium plates containing the appropriate selective agent.
To test for the segregation of the transgene in the T1 generation, seeds of the transgenic lines were germinated on medium containing either 75 4MI or 75 μm 7MT for 21 days. The ratios of resistant/sensitive seedlings were for most of the lines close to the expected 3:1 ratio confirming a single nuclear site of insertion for the 15 lines tested.

[2] = system: tobacco shoot producing leaf discs; assay: Discrimination between wild type and ASA2 expressing tobacco shoot producing leaf discs; format: cell-based
Description: Various concentrations of the different analogs were tested on maize, soy bean, and tobacco that includes growth inhibition test of germination, leaf callus formation test, and other growth inhibition tests (FIGS. 15-38).
(§2) Leaf callus/shoot formation was studied on Tobacco Regeneration Medium that was MS basal medium with 88 μM 6-benzyladenine (BA) and 0.5 μM naphthalene acetic acid (NAA) and various concentrations of different Trp and indole analogs using a total of 30 leaf discs (6 mm each in diameter) from either the untransformed wild type (WT) tobacco or the ASA2 expressing transgenic line transformed with pAST-IV vector (line ASTIV) at 28° C. under fluorescent light as described above. Callus formation and shoot production was visually evaluated after 2, 4 and 6 weeks. Seedling growth inhibition was studied as described herein.

[3] = system: tobacco leaf discs transformed with CaMV35S-ASA2; assay: Selection of A. tumefaciens (pC2ASA2) transformed tobacco leaf discs on analog; format: cell-based, Nicotiana tabacum L. cv. Xanthi; details: for resistant plants obtained (total of two experiments): 300 μm on TRM, 150 leaf discs for 4MI, 135 leaf discs for 7MT; for optimal concentration for selection of putative transformants: on TRM
Excerpt: as §1
Leaf discs (6 mm each in diameter) from 20 leaves of WT tobacco were used for each transformation experiment. After 6 weeks of selection on TRM with either 300 μM 4MI or 300 μM 7MT and 500 mg/l timentin to eliminate A. tumefaciens, the shoots regenerating from the callus were isolated and transferred to the Rooting Medium with analogs to initiate root growth. After root induction, the plantlets were transferred into soil and grown to maturity in a greenhouse. The T1 seeds were plated on either 4MI or 7MT for segregation tests and to obtain homozygous lines.
The ASA2 gene driven by the CaMV 35S promoter was transferred into tobacco leaf discs via the A. tumefaciens-mediated transformation method. Putative transformants were selected on TRM using the optimal concentration (300 μm) of 4MI and 7MT for selection. 31 resistant plants were obtained in two different experiments: 21 one on 4MI from a total of 150 leaf discs (10 resistant plants from 80 leaf discs in experiment 1 and 11 resistant plants from 70 leaf discs in experiment 2) and 10 on 7MT from a total of 135 leaf discs (6 resistant plants from 70 leaf discs in experiment 1 and 4 resistant plants from 65 leaf discs in experiment 2). […] GUS activity was assessed histochemically in PCR-GUS positive lines using leaf pieces confirming the results obtained with the molecular screening. When the transgenic plants were tested for ASA2 gene expression by RT-PCR an 815-bp fragment was amplified from total RNA extracted from young leaves from 15 transgenic lines while no fragment was detected in the WT. […]

[4] = system: wild-type (WT) tobacco seedlings; assay: Seedling growth inhibition test, wild-type tobacco; format: in vivo, Nicotiana tabacum; details: for germination of WT and ASTIV seeds on analog containing medium / WT seedling growth: 75 μm analog; for WT seedling growth: after two weeks
Excerpt: (§3) The concentrations listed in Table 1 are for illustrative purposes and should not be construed as a limited range. Seedling growth inhibition was studied by placing a total of 45 surface-sterilized seeds of either the wild-type (WT) tobacco (Nicotiana tabacum cv. Petit Havana SR1) or the ASA2 expressing transgenic plants previously obtained (Zhang et al., 2001), on Murashige-Skoog medium supplemented with 3% sucrose, vitamins, 0.8% agar and various concentrations of the different analogs (see Table 1). Seed germination and root formation were measured after 2 weeks, at 28° C. under fluorescent light. The analogs listed in Table 1 were obtained from Sigma-Aldrich (St. Louis, Mo.) or Acros Organics (Morris Plains, N.J.).
as §1

[5] = system: tobacco leaf discs bombarded with vector pAST-IV; assay: Selection of plastid transformants (pAST-IV) on analog; format: cell-based, Nicotiana tabacum cv. Havana; details: 60 leaf discs bombarded, 6-8 weeks selection
Description: DNA preparation, precipitation onto gold particles, and bombardment were performed as described previously (Svab & Maliga P, 1993) using 0.6 μm gold particles (Bio-Rad, Hercules, Calif.) as micro projectiles. Any suitable particle bombardment procedure can be used. Briefly, the plasmid containing the marker gene and a gene of interest are coated onto gold or tungsten microparticles. The coated particles are air dried and loaded on to a particle gun for particle bombardment into the desired tissue. Nicotiana tabacum cv. Havana was used in the experiments. Green calli and shoots resistant to either 7-MT or 4-MI were obtained after 6-8 wks of selection on RMOP medium (Svab et al., 1990) and subjected to three additional rounds of selection for the homoplastomic condition.
Six to eight weeks after bombardment, 28 independent resistant shoots/calli were recovered from 60 leaf discs bombarded with vector pAST-IV. The 28 lines selected directly for 4MI or 7MT resistance were tested by the PCR reaction using either primers specific for ASA2 gene (L40 and L 39) or a primer specific to the ASA2 coding region (L40) and a primer that is located in the plastid genome outside the flanking region of the vector (L29). […] A 815 bp (L40-L39) and a 2.1 kb (L40-L29) fragments were reproducibly detected in 5 transgenic of the 28 in dependent lines (3 from 7MT and 2 from 4 MI). […]

[6] = system: ASA2 expressing transgenic tobacco (line ASTIV); assay: Leaf callus formation and growth of ASA2 expressing (5MT resistant) tobacco plants; format: cell-based, Nicotiana tabacum; details: 300 μm analog; for callus and shoot formation of ASA2 expressing leaf discs: after four/six weeks
Excerpt: as §3
(§4) Leaf callus formation was studied on the nutrient medium described herein using a total of 30 leaf discs at 28° C. under fluorescent light. After 2 weeks, callus formation was measured and after 4 weeks shoot production was recorded.
as §2

[7] = system: wild-type (WT) tobacco leaf discs; assay: Leaf callus/shoot formation inhibition, wild-type tobacco leaf discs; format: cell-based, Nicotiana tabacum; details: for effectiveness as selection agent among the analogs tested: 9 Trp analogs and 7 indole analogs tested; for callus production of the wild-type / shoot formation of WT leaf discs: 300 μm analog
Description: as §4, §2

[8] = system: Arabidopsis germinating seedlings; assay: Discrimination between wild type and ASA2 expressing Arabidopsis germinating seedlings; format: in vivo; details: Arabidopsis seeds

Cc1cccc2c(CC(N)C(=O)O)c[nH]c12 (racemic) [7MT, 7-methyl-DL-tryptophan]
germination and growth of T2 seed of homozygous ASA2 lines [1]: all 100 seeds germinated and grew normally
transgenic seedling growth [1]: grew well
transgenic seedling development after six weeks [1]: growing with normal true leaf development
concentration for discriminating between wild type and ASA2 expressing tobacco shoot producing leaf discs [2]: 7MT 400 μM
resistant plants obtained (total of two experiments) [3]: 10
optimal concentration for selection of putative transformants [3]: 300 μm
germination of WT and ASTIV seeds on analog containing medium [4]: germinate almost equally
WT seedling growth [4]: started to bleach, ceased to grow and eventually died
growth of the wild-type seedlings/roots ([4]; 300 μm analog): completely inhibited
PCR-confirmed transgenic lines among 28 independent resistant lines [5]: 3
growth of the ASA2 expressing (5-MT resistant) plants [6]: not affected
callus and shoot formation of ASA2 expressing leaf discs [6]: formed callus and produced shoots
effectiveness as selection agent among the analogs tested [7]: most effective
effectiveness as selection agent among the analogs tested ([7]; listed as 7-MT): enhanced selection properties
callus production of the wild-type [7]: greater inhibition; also recorded: inhibited
shoot formation of WT leaf discs [7]: little shoot formation
concentration for discriminating between wild type and ASA2 expressing Arabidopsis germinating seedlings [8]: 7MT 300 μM

CC(=O)c1c[nH]c2ccccc12 [3-acetylI]
concentration for discriminating between wild type and ASA2 expressing tobacco shoot producing leaf discs [2]: 3-acetylI 500 μM

Fc1cccc2[nH]ccc12 [4FI, 4-Fluoroindole]
concentration for discriminating between wild type and ASA2 expressing Arabidopsis germinating seedlings [8]: 4FI 70 μM

Cc1cccc2[nH]ccc12 [4MI, 4-Methylindole]
germination and growth of T2 seed of homozygous ASA2 lines [1]: all 100 seeds germinated and grew normally
transgenic seedling growth [1]: grew well
transgenic seedling development after six weeks [1]: growing with normal true leaf development
concentration for discriminating between wild type and ASA2 expressing tobacco shoot producing leaf discs [2]: 4MI 300 μM
resistant plants obtained (total of two experiments) [3]: 21
optimal concentration for selection of putative transformants [3]: 300 μm
germination of WT and ASTIV seeds on analog containing medium [4]: germinate almost equally
WT seedling growth [4]: started to bleach, ceased to grow and eventually died
growth of the wild-type seedlings/roots ([4]; 300 μm analog): completely inhibited
wild-type plant germination ([4]; 300 μm analog): inhibited
PCR-confirmed transgenic lines among 28 independent resistant lines [5]: 2
growth of the ASA2 expressing (5-MT resistant) plants [6]: not affected
callus and shoot formation of ASA2 expressing leaf discs [6]: formed callus and produced shoots
effectiveness as selection agent among the analogs tested [7]: most effective
effectiveness as selection agent among the analogs tested ([7]; listed as 4-MI): enhanced selection properties
callus production of the wild-type [7]: greater inhibition; also recorded: inhibited
shoot formation of WT leaf discs [7]: little shoot formation

Cc1cccc2[nH]cc(C[C@H](N)C(=O)O)c12 [4MT, 4-methyltrypthophan]
concentration for discriminating between wild type and ASA2 expressing Arabidopsis germinating seedlings [8]: 4MT 70 μM

Nc1ccc(F)cc1C(=O)O [5FA]
concentration for discriminating between wild type and ASA2 expressing tobacco shoot producing leaf discs [2]: 5FA 150 μM

Fc1ccc2[nH]ccc2c1 [5FI, 5-Fluoroindole]
concentration for discriminating between wild type and ASA2 expressing Arabidopsis germinating seedlings [8]: 5FI 20 μM

N[C@@H](Cc1c[nH]c2ccc(O)cc12)C(=O)O [5HT, 5-hydroxyl-L-tryptophan]
concentration for discriminating between wild type and ASA2 expressing Arabidopsis germinating seedlings [8]: 5HT 200 μM

Cc1ccc(N)c(C(=O)O)c1 [5MA, 5-methylanthranilate]
concentration for discriminating between wild type and ASA2 expressing tobacco shoot producing leaf discs [2]: 5MA 800 μM

COc1ccc2[nH]ccc2c1 [5MI, 5-Methoxyindole]
concentration for discriminating between wild type and ASA2 expressing tobacco shoot producing leaf discs [2]: 5MI 1000 μM

Cc1ccc2[nH]cc(C[C@H](N)C(=O)O)c2c1 [5MT, 5-methyltrypthophan]
concentration for discriminating between wild type and ASA2 expressing Arabidopsis germinating seedlings [8]: 5MT 200 μM

Cc1cccc(N)c1C(=O)O [6MA, 6-methylanthranilate]
concentration for discriminating between wild type and ASA2 expressing tobacco shoot producing leaf discs [2]: 6MA 70 μM

COc1cccc2cc[nH]c12 [7MI, 7-Methoxyindole]
concentration for discriminating between wild type and ASA2 expressing tobacco shoot producing leaf discs [2]: 7MI 1000 μM

C[C@](N)(Cc1c[nH]c2ccccc12)C(=O)O [α-MT, α- methyltrypthophan]
concentration for discriminating between wild type and ASA2 expressing Arabidopsis germinating seedlings [8]: α-MT 20 μM
